This note sets out measurements from patent publication US4469705A, “Saturated leukotriene derivatives as antiallergens” (McNeilab, Inc., priority 1982, dated 1984).

The subject of experiment [1] is contraction of guinea pig parenchymal tissue by immunological release of SRS-A. Description: Guinea pig parenchymal strip: inhibition of contraction by immunological release of SRS-A (isolated tissue). The class given is cell-based. The settings on record: Cavia porcellus; egg albumin challenge of sensitized tissue; chlorpheniramine (10^-5 M), indomethacin (10^-4 M); test compound 30 min before challenge. As for the experimental part: (b) Guinea Pig Parenchymal Strip
The guinea pigs were sacrificed and lungs removed. Strips of subpleural parenchyma were prepared from the left and right diaphragmatic lobes and suspended in a tissue bath under 1 gram of tension. After a one hour equilibration period, a dose response to histamine (10^-7 to 10^-4 M) induced contractions was performed to determine maximal contraction. The tissues were then washed and allowed to relax to baseline. Chlorpheniramine (10^-5 M), indomethacin (10^-4 M) and test compound were added 30 minutes prior to challenge with egg albumin. The response to antigen was measured in milligrams of tension.

Experiment [2] concerns SRS-A induced contraction of guinea pig ileum. Description: Guinea pig ileum: inhibition of SRS-A induced contraction (isolated tissue). The class given is cell-based. The following applies: Cavia porcellus, atropine and chlorpheniramine (1×10^-5 M) present, test drug 5 min before SRS-A, read-out: G.P. Ileum IC50. As for the experimental part: The tissue is exposed to […] histamine at 1-3 minute intervals until a reproducible response is obtained. Atropine (1×10^-5 M) and chloropheniramine (1×10^-5 M) are added followed by 1-2 biological units of SRS-A. After washing the tissue, the response to BaCl2 (1×10^-3 M) was also noted.

For orientation: IC50 means the point on the concentration scale where inhibition reaches its midpoint. `CCCCCCCCCCCC(SC[C@H](N)C(=O)OC)C(O)CCCCC(=O)OC` (stereo partly drawn) [Example 3, Threo S-(5-Hydroxy-1-methoxycarbonyl-6-heptadecyl)-L-cysteine Methyl Ester]: the IC50 is greater than 100 µM in experiment [1] and 14 µM in experiment [2]. Turning to `CCCCCCCCCCC[C@@H](SCCC(=O)OC)[C@@H](O)CCCCC(=O)OC` (relative stereo) [Example 4, Erythro Methyl 6-Hydroxy-7-{[2-(methoxycarbonyl)ethyl]thio}octadecanoate], the IC50 in experiment [1] was determined as 1.1 µM. As for `CCCCCCCCCCC[C@@H](SCCC(=O)O)[C@@H](O)CCCCC(=O)O` (relative stereo) [Example 5, Erythro 7-(2-Carboxyethyl)thio-6-hydroxyoctadecanoic Acid], the IC50 in experiment [1] is 3.6 µM; in experiment [2], 0.08 µM.

With `CCCCCCCCCCC[C@@H](SCCC(=O)OC)[C@H](O)CCCCC(=O)OC` (relative stereo) [Example 1, Threo Methyl 6-Hydroxy-7{[2-(methoxycarbonyl)ethyl]thio}octadecanoate], the IC50 in experiment [1] is greater than 100 µM; in experiment [2], 1 µM. Consider `CCCCCCCCCCC[C@@H](SCCC(=O)O)[C@H](O)CCCCC(=O)O` (relative stereo) [Example 2, Threo 7-(2-Carboxyethyl)thio-6-hydroxyoctadecanoic Acid], for which the IC50 in experiment [1] was 100 µM; in experiment [2] it was 9 µM.
